From patent US8178506B2, “Oligomeric compounds and compositions for use in modulation of small non-coding RNAs” (Regulus Therapeutics Inc., priority 2003, dated 2012)
In the oligonucleotide strings, read from the 5' end, every base follows the letter of its sugar. An asterisk marks phosphorothioate; unmarked linkages are phosphodiester. Other units and linkages are bracketed, terminal groups are in braces. A string of capitals states the bases alone. e = 2'-O-(2-methoxyethyl) (MOE); [5mC] = 5-methylcytosine; d = 2'-deoxy (DNA)

Assays:
[1] = test system: BJ, B16-F10, T47D, T47Dp53 and HeLa cells; assay: Cell cycle assay (propidium iodide flow cytometry), cell line panel; type: cell-based; conditions: for G1 (percentage of cells in phase of the cell cycle) / G2/M (percentage of cells in phase of the cell cycle) / S (percentage of cells in phase of the cell cycle) / SubG1 (percentage of cells in phase of the cell cycle) / aneuploid (percentage of cells): 150 nM oligomeric compound, 4.5 μg/ml LIPOFECTIN, after 72 hours, propidium iodide flow cytometry
[2] = test system: aP2; assay: aP2 mRNA expression in adipocytes (real-time PCR); type: cell-based, human; conditions: for aP2 mRNA: differentiating adipocytes transfected with oligomeric compound, Table 75; for AP2 mRNA: differentiating adipocytes, control = treatment with ISIS 342673
[3] = test system: adipocytes; assay: Triglyceride accumulation assay in adipocytes; type: cell-based, human
[4] = test system: HSL; assay: HSL mRNA expression in adipocytes (real-time PCR); type: cell-based, human
[5] = test system: Glut4; assay: Glut4 mRNA expression in adipocytes (real-time PCR); type: cell-based, human
[6] = test system: PPARγ; assay: PPARγ mRNA expression in adipocytes (real-time PCR); type: cell-based, human
[7] = test system: HeLa cells; assay: Cell cycle assay in HeLa cells; type: cell-based, human; conditions: HeLa cells, 150 nM oligomeric compound
[8] = differentiating adipocytes transfected with oligomeric compound, Table 75
[9] = 24 hours, relative to untreated control (UTC = 100)
[10] = 48 hours after treatment, relative to untreated control (UTC=100)
[11] = Table 17, differentiating adipocytes, control = treatment with ISIS 342673
[12] = Table 18, differentiating adipocytes, control = treatment with ISIS 342673

## 328364 (eT*e[5mC]*eT*eT*eA*dA*dG*dT*d[5mC]*dA*d[5mC]*dA*dA*dA*dT*e[5mC]*eA*eG*e[5mC]*eA) [compound 328364]
[1]
  G1 (percentage of cells in phase of the cell cycle): 61.5%
  G2/M (percentage of cells in phase of the cell cycle): 14.3%
  S (percentage of cells in phase of the cell cycle): 24.2%
  SubG1 (percentage of cells in phase of the cell cycle): 1.9%
  aneuploid (percentage of cells): 15.1%

## 340348 (antisense CTACCTGCACGAACAGCACTTT; all 2'-MOE, all phosphorothioate, methylation of C not given here) [compound 340348]
[1]
  G1 (percentage of cells in phase of the cell cycle): 53.9%
  G2/M (percentage of cells in phase of the cell cycle): 14.3%
  S (percentage of cells in phase of the cell cycle): 31.8%
  SubG1 (percentage of cells in phase of the cell cycle): 14.1%
  aneuploid (percentage of cells): 12.3%
[2]
  aP2 mRNA: 68 percentage of untreated control (UTC)
[3]; [8]
  TG (triglyceride accumulation): 48 percentage of untreated control (UTC)
[4]; [8]
  HSL mRNA: 57 percentage of untreated control (UTC)
[5]; [8]
  GLUT4 mRNA: 52 percentage of untreated control (UTC)
[6]; [8]
  PPAR gamma mRNA: 78 percentage of untreated control (UTC)

## 340365 (antisense TACTTTATATAGAACACAAG; sugars from the 5' end e5 d10 e5, all phosphorothioate, methylation of C not given here) [compound 340365]
[7]; [9]
  % cells aneuploid: 84%
  % cells in cell cycle phase G1: 125%
  % cells in cell cycle phase G2/M: 114%
  % cells in cell cycle phase S: 71%
  % cells in cell cycle phase subG1: 109%
[7]; [10]
  % cells in cell cycle phase: G1: 99%
  % cells in cell cycle phase: G2/M: 109%
  % cells in cell cycle phase: S: 94%
  % cells in cell cycle phase: aneuploid: 129%
  % cells in cell cycle phase: subG1: 71%
[1]
  G1 (percentage of cells in phase of the cell cycle): 55.2%
  G2/M (percentage of cells in phase of the cell cycle): 15.4%
  S (percentage of cells in phase of the cell cycle): 29.4%
  SubG1 (percentage of cells in phase of the cell cycle): 4.3%
  aneuploid (percentage of cells): 18.3%

## 348124 (CACAAAUUCGGUUCUACAGGGUA; anti-miR; all 2'-MOE, all phosphorothioate, methylation of C and T or U not given here) [compound 348124]
[2]
  aP2 mRNA: 59 percentage of untreated control (UTC)
[3]; [8]
  TG (triglyceride accumulation): 53 percentage of untreated control (UTC)
[4]; [8]
  HSL mRNA: 43 percentage of untreated control (UTC)
[5]; [8]
  GLUT4 mRNA: 41 percentage of untreated control (UTC)
[6]; [8]
  PPAR gamma mRNA: 63 percentage of untreated control (UTC)

## 348125 (GCUGGAUGCAAACCUGCAAAACU; anti-miR; all 2'-MOE, all phosphorothioate, methylation of C and T or U not given here) [compound 348125]
[2]
  aP2 mRNA: 67 percentage of untreated control (UTC)
[3]; [8]
  TG (triglyceride accumulation): 79 percentage of untreated control (UTC)
[4]; [8]
  HSL mRNA: 64 percentage of untreated control (UTC)
[5]; [8]
  GLUT4 mRNA: 65 percentage of untreated control (UTC)
[6]; [8]
  PPAR gamma mRNA: 64 percentage of untreated control (UTC)

## 348127 (GCAGAACUUAGCCACUGUGAA; all 2'-MOE, all phosphorothioate, methylation of C and T or U not given here) [compound 348127]
[2]
  aP2 mRNA: 185 percentage of untreated control (UTC)
[3]; [8]
  TG (triglyceride accumulation): 155 percentage of untreated control (UTC)
[4]; [8]
  HSL mRNA: 150 percentage of untreated control (UTC)
[5]; [8]
  GLUT4 mRNA: 201 percentage of untreated control (UTC)
[6]; [8]
  PPAR gamma mRNA: 130 percentage of untreated control (UTC)

## AGCCTATCCTGGATTACTTGAA (anti-miR; chemistry not fully specified) [ISIS 327907, uniform 2′-MOE PS; targets mir-26a]
[1]; 150 nM, 72 hours (Table 29)
  percentage of aneuploid cells: higher than average percentages of aneuploid cells
  percentage of cells with hypodiploid DNA content (subG1): increased percentage of cells with hypodiploid DNA content

## CCGAGCTCTCTTATCAACAG (e[5mC]*e[5mC]*eG*eA*eG*d[5mC]*dT*d[5mC]*dT*d[5mC]*dT*dT*dA*dT*d[5mC]*eA*eA*e[5mC]*eA*eG) [ISIS 183891, 5-10-5 gapmer targeting kinesin-like 1 (Eg5), positive control, reference compound]
[1]; BJ 200 nM, T47D, T47Dp53, HeLa, B16 150 nM, 48 hours
  cell cycle delay or arrest in all cell lines: delay or arrest in G2/M phase

## TACTTTATATAGAACACAAG (chemistry not given here) [ISIS 340365, 5-10-5 gapmer PS; targets mir-92-2]
[1]; 150 nM, 72 hours (Table 29)
  percentage of aneuploid cells: higher than average percentages of aneuploid cells

## TCATAGCCCTGTACAATGCTGCT (anti-miR; chemistry not fully specified) [ISIS 327906, uniform 2′-MOE PS; targets mir-103-1]
[1]; 150 nM, 72 hours (Table 29)
  percentage of cells in the G2/M phase: increased percentage of cells in the G2/M phase
  percentage of cells with hypodiploid DNA content (subG1): increased percentage of cells with hypodiploid DNA content

## TNF-alpha
[2]; Table 17
  AP2 mRNA: 5.5 percentage of control
[2]; Table 18
  AP2 mRNA: 9.6 percentage of control
[3]; [11]
  TG (triglyceride accumulation): 10.0 percentage of control
[3]; [12]
  TG (triglyceride accumulation): 14.5 percentage of control
[4]; [11]
  HSL mRNA: 0.7 percentage of control
[4]; [12]
  HSL mRNA: 3.1 percentage of control
[5]; [11]
  GLUT4 mRNA: 0.5 percentage of control
[5]; [12]
  GLUT4 mRNA: 1.9 percentage of control
[6]; [11]
  PPAR gamma mRNA: 18.8 percentage of control
[6]; [12]
  PPAR gamma mRNA: 27.9 percentage of control
